Laboratory results published in the supplement of paper PMC10307832.

Assays:
Experiment in all cases: relative viability (nuclei count vs DMSO), 5 days (fraction); higher = more cells survive
GSK-J4 + Tozasertib = compound: CCOC(=O)CCNc1cc(N2CCc3ccccc3CC2)nc(-c2ccccn2)n1 [GSK-J4] + Cc1cc(Nc2cc(N3CCN(C)CC3)nc(Sc3ccc(NC(=O)C4CC4)cc3)n2)n[nH]1 [Tozasertib] (partner 0.1 µM)
Outline: (§1)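 Lung cancer cell lines in 1536-well plates were dosed by pin tool the day after seeding, either with one drug alone or with a fixed anchor-drug dose plus five library-drug doses (not always all listed) in √10 steps. After 5 days, cells were fixed and their nuclei stained in one step (final 0.05% Triton X-100, 1% formaldehyde, 1 ug/ml Hoechst), then counted on 4× images. Relative viability is the nuclei count in treated wells divided by that in vehicle wells. Values are medians of duplicate plates.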

AZ3146 + OSI-027 = compound: CN1CCC(CC1)OC2=CC(=C(C=C2)NC3=NC=C4C(=N3)N(C(=O)N4C)C5CCCC5)OC [AZ3146] + COc1cccc2cc(-c3nc([C@H]4CC[C@H](C(=O)O)CC4)n4ncnc(N)c34)[nH]c12 [OSI-027] (partner 0.5 µM)
Outline: as §1

AZ3146 + Dasatinib = compound: CN1CCC(CC1)OC2=CC(=C(C=C2)NC3=NC=C4C(=N3)N(C(=O)N4C)C5CCCC5)OC [AZ3146] + Cc1nc(Nc2ncc(C(=O)Nc3c(C)cccc3Cl)s2)cc(N2CCN(CCO)CC2)n1 [Dasatinib] (partner 0.075 µM)
Outline: as §1

AZ3146 + Pemetrexed = compound: CN1CCC(CC1)OC2=CC(=C(C=C2)NC3=NC=C4C(=N3)N(C(=O)N4C)C5CCCC5)OC [AZ3146] + Nc1nc2[nH]cc(CCc3ccc(C(=O)N[C@@H](CCC(=O)O)C(=O)O)cc3)c2c(=O)[nH]1 [Pemetrexed] (partner 0.2 µM)
Outline: as §1

UMC-11
relative viability (GSK-J4 + Tozasertib; first compound 0.5 µM): 0.189
relative viability (GSK-J4 + Tozasertib; first compound 15.81 µM): 0.176
relative viability (GSK-J4 + Tozasertib; first compound 50 µM): 0.17
relative viability (AZ3146 + OSI-027; first compound 0.08 µM): 0.462
relative viability (AZ3146 + OSI-027; first compound 0.253 µM): 0.46
relative viability (AZ3146 + OSI-027; first compound 0.8 µM): 0.425
relative viability (AZ3146 + OSI-027; first compound 2.53 µM): 0.475
relative viability (AZ3146 + OSI-027; first compound 8 µM): 0.314
relative viability (AZ3146 + Dasatinib; first compound 0.08 µM): 0.426
relative viability (AZ3146 + Dasatinib; first compound 0.253 µM): 0.562
relative viability (AZ3146 + Dasatinib; first compound 0.8 µM): 0.463
relative viability (AZ3146 + Dasatinib; first compound 2.53 µM): 0.452
relative viability (AZ3146 + Dasatinib; first compound 8 µM): 0.257
relative viability (AZ3146 + Pemetrexed; first compound 0.08 µM): 0.643
relative viability (AZ3146 + Pemetrexed; first compound 0.253 µM): 0.819
relative viability (AZ3146 + Pemetrexed; first compound 0.8 µM): 0.782
relative viability (AZ3146 + Pemetrexed; first compound 2.53 µM): 0.775
relative viability (AZ3146 + Pemetrexed; first compound 8 µM): 0.43
